Where a name gives a salt, the structure may show the parent alone.
How the values were obtained:
[1] = molecular target: T1, Human vitronectin receptor (αvβ3) (Homo sapiens, UniProt P05106+P06756); experiment: Vitronectin adhesion assay: solid phase receptor assay, competition with biotinylated vitronectin; assay type: binding; settings: purified human vitronectin receptor; 1 nM biotinylated vitronectin
T1 construct: Human vitronectin receptor (αvβ3) was purified from human placenta; from tissue; host or cells: human placenta
Description: Vitronectin Adhesion Assay
Human vitronectin receptor (αvβ3) was purified from human placenta as previously described [Pytela et al., Methods in Enzymology, 144:475-489 (1987)]. Human vitronectin was purified from fresh frozen plasma as previously described [Yatohgo et al., Cell Structure and Function, 13:281-292 (1988)]. Biotinylated human vitronectin was prepared by coupling NHS-biotin from Pierce Chemical Company (Rockford, Ill.) to purified vitronectin as previously described [Charo et al., J. Biol. Chem., 266(3):1415-1421 (1991)]. Assay buffer, OPD substrate tablets, and RIA grade BSA were obtained from Sigma (St. Louis, Mo.). Anti-biotin antibody was obtained from Calbiochem (La Jolla, Calif.). Linbro microtiter plates were obtained from Flow Labs (McLean, Va.). ADP reagent was obtained from Sigma (St. Louis, Mo.).
This assay was essentially the same as previously reported [Niiya et al., Blood, 70:475-483 (1987)]. The purified human vitronectin receptor (αvβ3) was diluted from stock solutions to 1.0 μg/mL in Tris-buffered saline containing 1.0 mM Ca^++, Mg^++, and Mn^++, pH 7.4 (TBS^+++). The diluted receptor was immediately transferred to Linbro microtiter plates at 100 μL/well (100 ng receptor/well). The plates were sealed and incubated overnight at 4° C. to allow the receptor to bind to the wells. All remaining steps were at room temperature. The assay plates were emptied and 200 μL of 1% RIA grade BSA in TBS^+++ (TBS^+++/BSA) were added to block exposed plastic surfaces. Following a 2 hour incubation, the assay plates were washed with TBS^+++ using a 96 well plate washer. Logarithmic serial dilution of the test compound and controls were made starting at a stock concentration of 2 mM and using 2 nM biotinylated vitronectin in TBS^+++/BSA as the diluent. This premixing of labeled ligand with test (or control) ligand, and subsequent transfer of 50 μL aliquots to the assay plate was carried out with a CETUS Propette robot; the final concentration of the labeled ligand was 1 nM and the highest concentration of test compound was 1.0×10^−4 M. The competition occurred for two hours after which all wells were washed with a plate washer as before. Affinity purified horseradish peroxidase labeled goat anti-biotin antibody was diluted 1:3000 in TBS^+++/BSA and 125 μL were added to each well. After 30 minutes, the plates were washed and incubated with OPD/H2O2 substrate in 100 mM/L Citrate buffer, pH 5.0. The plate was read with a microtiter plate reader at a wavelength of 450 nm and when the maximum-binding control wells reached an absorbance of about 1.0, the final A450 were recorded for analysis. The data were analyzed using a macro written for use with the EXCELJ spreadsheet program. The mean, standard deviation, and % CV were determined for duplicate concentrations. The mean A450 values were normalized to the mean of four maximum-binding controls (no competitor added)(B-MAX). The normalized values were subjected to a four parameter curve fit algorithm [Rodbard et al., Int.

[2] = molecular target: T2, Human fibrinogen receptor IIb/IIIa (Homo sapiens, UniProt P05106+P08514); experiment: Purified IIb/IIIa receptor assay: solid phase receptor assay, competition with biotinylated vitronectin; assay type: binding; settings: 1 nM biotinylated vitronectin
T2 construct: Human fibrinogen receptor ([…]) was purified from outdated platelets; from tissue; host or cells: outdated human platelets
Source text: Purified IIb/IIIa Receptor Assay
Human fibrinogen receptor ([…]) was purified from outdated platelets. (Pytela, R., Pierschbacher, M. D., Argraves, S., Suzuki, S., and Rouslahti, E. “Arginine-Glycine-Aspartic acid adhesion receptors”, Methods in Enzymology 144(1987):475-489.) Human vitronectin was purified from fresh frozen plasma as described in Yatohgo, T., Izumi, M., Kashiwagi, H., and Hayashi, M., “Novel purification of vitronectin from human plasma by heparin affinity chromatography,” Cell Structure and Function 13(1988):281-292. Biotinylated human vitronectin was prepared by coupling NHS-biotin from Pierce Chemical Company (Rockford, Ill.) to purified vitronectin as previously described. (Charo, I. F., Nannizzi, L., Phillips, D. R., Hsu, M. A., Scarborough, R. M., “Inhibition of fibrinogen binding to GP IIb/IIIa by a GP IIIa peptide”, J. Biol. Chem. 266(3)(1991): 1415-1421.) Assay buffer, OPD substrate tablets, and RIA grade BSA were obtained from Sigma (St. Louis, Mo.). Anti-biotin antibody was obtained from Calbiochem (La Jolla, Calif.). Linbro microtiter plates were obtained from Flow Labs (McLean, Vs.). ADP reagent was obtained from Sigma (St. Louis, Mo.).
This assay is essentially the same reported in Niiya, K., Hodson, E., Bader, R., Byers-Ward, V. Koziol, J. A., Plow, E. F. and Ruggeri, Z. M., “Increased surface expression of the membrane glycoprotein IIb/IIIa complex induced by platelet activation: Relationships to the binding of fibrinogen and platelet aggregation”, Blood 70(1987):475-483. The purified human fibrinogen receptor ([…]) was diluted from stock solutions to 1.0 μg/mL in Tris-buffered saline containing 1.0 mM Ca^++, Mg^++, and Mn^++, pH 7.4 (TBS^+++). The diluted receptor was immediately transferred to Linbro microtiter plates at 100 μL/well (100 ng receptor/well). The plates were sealed and incubated overnight at 4° C. to allow the receptor to bind to the wells. All remaining Steps were at room temperature. The assay plates were emptied and 200 μL of 1% RIA grade BSA in TBS^+++ (TBS^+++/BSA) were added to block exposed plastic surfaces. Following a 2 hour incubation, the assay plates were washed with TBS^+++ using a 96 well plate washer. Logarithmic serial dilution of the test compound and controls were made starting at a stock concentration of 2 mM and using 2 nM biotinylated vitronectin in TBS^+++/BSA as the diluent. This premixing of labeled ligand with test (or control) ligand, and subsequent transfer of 50 μL aliquots to the assay plate was carried out with a CETUS Propette robot; the final concentration of the labeled ligand was 1 nM and the highest concentration of test compound was 1.0×10^−4 M. The competition occurred for two hours after which all wells were washed with a plate washer as before. Affinity purified horseradish peroxidase labeled goat anti-biotin antibody was diluted 1:3000 in TBS^+++/BSA and 125 μL were added to each well. After 30 minutes, the plates were washed and incubated with […] substrate in 100 mM/L citrate buffer, pH 5.0. The plate was read with a microtiter plate reader at a wavelength of 450 nm and when the maximum-binding control wells reached an absorbance of about 1.0, the final A450 were recorded for analysis. The data were analyzed using a macro written for use with the EXCELJ spreadsheet program. The mean, standard deviation, and % CV were determined for duplicate concentrations. The mean A450 values were normalized to the mean of four maximum-binding controls (no competitor added)(B-MAX). The normalized values were subjected to a four parameter curve fit algorithm, [Robard et al., Int. Atomic Energy Agency.

Row | IC50 [1] [µM] | IC50 [2] [µM] | Compound
1 | 0.00113 | 0.97 | O=C(O)C[C@H](NC(=O)CNC(=O)c1c[nH]c(=O)c(NC2=NCCN2)c1)c1cc(Br)cc(Br)c1O [Example 36]
2 | 0.00021 | 0.361 | O=C(O)C[C@H](NC(=O)CNC(=O)c1cncc(NC2=NCC(O)CN2)c1)c1cc(Br)cc(Cl)c1O (some centres unmarked) [Example 7]
3 | 0.00042 | 0.884 | O=C(O)CC(NC(=O)CNC(=O)c1cncc(NC2=NCCN2)c1)c1cc(Cl)cc(I)c1O (centres unmarked) [Example 5]
4 | 91.2 | 15.8 | Cn1nc(C(=O)NCC(=O)NC(CC(=O)O)c2cc(Cl)cc(Cl)c2O)cc1NC1=NCCN1 (stereo not drawn) [Example 24, N-[[(4,5-dihydro-1H-imidazol-2-yl)amino]-1-methyl-1H-pyrazol-3yl]carbonyl]glycyl-3-(3,5-dichloro-2-hydroxyphenyl)-β-alanine, (trifluoroacetate) salt]
5 | 0.00074 | 0.581 | O=C(O)CC(NC(=O)CNC(=O)c1cncc(NC2=NCCN2)c1)c1cc(Cl)cc(Br)c1O (centres unmarked) [Example 4]
6 | 0.00018 | 0.244 | O=C(O)C[C@H](NC(=O)CNC(=O)c1cncc(N=C2NCC(O)CN2)c1)c1cc(Cl)cc(Br)c1O (some centres unmarked) [Example 9]
7 | 0.0045 | 0.442 | O=C(O)C[C@H](NC(=O)CNC(=O)c1cc(NC2=NCC(O)CN2)cs1)c1cc(Cl)cc(Cl)c1O (stereo partly drawn) [Example 12, (3S)-N-[[4-[(1,4,5,6-tetrahydro-5-hydroxy-2-pyrimidinyl)amino]-2-thienyl]carbonyl]glycyl-3-(3,5-dichloro-2-hydroxyphenyl)-β-alanine, trifluoroacetate salt]
8 | 1.87 | 3.91 | O=C(O)CC(NC(=O)CNC(=O)c1cc(NC2=NCCN2)[nH]n1)c1cc(Cl)cc(Cl)c1O (stereo not drawn) [Example 25, N-[[5-[(4,5-dihydro-1H-imidazol-2-yl)amino]-1H-pyrazol-3-yl]carbonyl]-glycyl-3-(3,5-dichloro-2-hydroxyphenyl)-β-alanine, (trifluoroacetate) salt]
9 | 0.0065 | 7.53 | O=C(O)C[C@H](NC(=O)CNC(=O)c1cc(NC2=NCC(O)CN2)[nH]c(=O)c1)c1cc(Cl)cc(Br)c1O (some centres unmarked) [Example 43]
10 | 0.00071 | 0.831 | O=C(O)C[C@H](NC(=O)CNC(=O)c1cncc(NC2=NCC(O)CN2)c1)c1cc(Br)cc(I)c1O (some centres unmarked) [Example 26]
11 | 0.00132 | 0.272 | N=C(N)Nc1cncc(C(=O)NCC(=O)NC(CC(=O)O)c2cc(Cl)cc(Cl)c2O)c1 (centres unmarked) [Example 2]
12 | 0.00041 | 0.298 | O=C(O)CC(NC(=O)CNC(=O)c1cncc(NC2=NCCN2)c1)c1cc(Cl)cc(Cl)c1O (centres unmarked) [Example 3]
13 | 0.00197 | 2.69 | COCCN/C(N)=N/c1cc(C(=O)NCC(=O)N[C@@H](CC(=O)O)c2cc(Cl)cc(Cl)c2O)c[nH]c1=O [Example 46]
14 | 0.0002 | 0.52 | O=C(O)C[C@H](NC(=O)CNC(=O)c1c[nH]c(=O)c(NC2=NCC(O)CN2)c1)c1cc(Cl)cc(Br)c1O (some centres unmarked) [Example 33]
15 | 0.00043 | 0.798 | Cn1cc(C(=O)NCC(=O)NC(CC(=O)O)c2cc(Cl)cc(Cl)c2O)cc(NC2=NCCN2)c1=O (stereo not drawn) [Example 18, N-[[5-(4,5,-dihydro-1H-imidazol-2-yl)amino]-1,6-dihydro-1-methyl-6-oxo-3-pyridinyl]carbonyl]glycyl-3-(3,5-dichloro-2-hydroxyphenyl-β-alanine, (trifluoroacetate) salt]
16 | 0.155 | 0.0295 | COc1cc(NC2=NCC(O)CN2)nc(C(=O)NCC(=O)N[C@@H](CC(=O)O)c2cc(Cl)cc(Br)c2O)c1 (some centres unmarked) [Example 30]
17 | 0.0951 | 0.857 | N=C(N)Nc1nc(C(=O)NCC(=O)NC(CC(=O)O)c2cccnc2)cs1 (centres unmarked) [Example 8]
18 | 0.00014 | 0.34 | O=C(O)C[C@H](NC(=O)CNC(=O)c1c[nH]c(=O)c(NC2=NCC(O)CN2)c1)c1cc(Br)cc(Br)c1 (some centres unmarked) [Example 35]
19 | 0.00034 | 0.462 | O=C(O)C[C@H](NC(=O)CNC(=O)c1cncc(N=C2NCC(O)CN2)c1)c1cc(Br)cc(Br)c1O (some centres unmarked) [Example 11]

Reference: patent US6689754B1, “Heterocyclic glycyl β-alanine derivatives” (G. D. Searle & Co., priority 1998, dated 2004)
